# Publication PMC4018993, “Use of “one-pot, mix-and-read” peptide-MHC class I tetramers and predictive algorithms to improve detection of cytotoxic T lymphocyte responses in cattle” (Veterinary Research, 2014)
# “Also recorded” adds a separate entry of the source.
# Key:
# CTL line Bx63 = assay: p-MHC class I tetramer staining of CTL line Bx63; format: cell-based, bovine; conditions: cell line Bx63; Tp8_379-387-BoLA-3*00101 tetramers
# Method: (§1) UFC510024] at 14 000 g for 10 min.
# BoLA-6*01301 = system: BoLA-6*01301
# Method: Peptides were purchased from Mimotopes (Victoria, Australia) at a purity of 95% and re-suspended in water containing 0.1% acetic acid at a final concentration of 10 mM and diluted to working concentrations in sterile water. The sequences of T. parva peptide epitopes are as in Table 1.
# CTL line BB007 [1] = assay: p-MHC class I tetramer staining of CTL line BB007; format: cell-based, bovine; conditions: peptide as BoLA-6*01301 tetramer, PE-streptavidin; Figure 1
# Method: as §1
# CTL line Bx196 = assay: p-MHC class I tetramer staining of CTL line Bx196; format: cell-based, bovine; conditions: cell line printed as 196; Tp2_96-104-BoLA-T2c tetramers
# Method: as §1
# BoLA-1*02301 = assay: p-MHC monomer binding assay, BoLA-1*02301; design: species or system bovine; conditions: data not shown
# Method: (§2) Folding of p-MHC class I complexes was assessed with an ELISA assay as described in [35]. […] After an incubation of 48 h at 18 °C, the complexes were transferred to another 96-well plate pre-coated with streptavidin (Nunc, cat# 436014), which captures biotinylated HC, and incubated for three hours at 4 °C. After washing, the W6/32 monoclonal antibody (Santa Cruz Biotechnology, Texas, USA, cat # SC-32235), which binds to a monomorphic epitope on β2m but only when it is incorporated in p-MHC class I complexes, was added for 1 h at 4 °C. After washing, anti-mouse IgG coupled to peroxidase (Sigma Aldrich, cat # A9917-1ML) was added to the plate followed by incubation for an hour at room temperature and further rounds of washes. Colorimetric change was performed by adding the TMB Plus2 “Ready to Use” Substrate (Kem En Tec, cat # 4395H) for 10 min at room temperature. The reaction was stopped by adding H2SO4 (0.3 M) and optical density was measured using an ELISA plate reader at 450 nm. The concentration of MHC class I and β2m molecules used in such assays is normally in the nanomolar range [35]. […] We are in the process of generating a β2m without the extra start methionine, which should allow use of recombinant molecules in the nanomolar range.
# CTL line BV50 = assay: p-MHC class I tetramer staining of CTL line BV50; format: cell-based, bovine
# Method: as §1
# BoLA-T5 = assay: peptide-BoLA binding assay, BoLA-T5; design: species or system bovine; conditions: peptide-BoLA binding assays
# Method: as §2
# BoLA-3*00101 = system: BoLA-3*00101; design: method as in PMID 18070892; conditions: ref [29]; cited from earlier work
# BoLA-T7 (bovine) = assay: not stated; preliminary data, not shown
# PBMC of BoLA-A18 cattle = assay: ex vivo tetramer staining of PBMC from ITM-vaccinated cattle; conditions: days 15 to 17 post ITM vaccination, T. parva Muguga 3308; Tp1_214-224-BoLA-6*01301 tetramers; three BoLA-A18 cattle
# Method: Three cattle of BoLA-A18 haplotype (typed with PCR primers [forward] 5’-[…]-3’ and [reverse] 5’-[…]-3’ specific for BoLA-6*01301) were vaccinated by ITM [24] using the T. parva strain Muguga 3308. Whole blood was collected from these cattle at the day of vaccination (day 0) and every two days till appearance of tetramer positive cells. PBMC were purified on Ficoll paque density gradients at 2500 rpm for 25 min and 5 × 10^5 PBMC were stained with the Tp1_214-224-BoLA-6*01301 tetramer as described in the flow cytometry procedure. This animal experiment was approved by the ILRI IACUC committee [# 2012.10].
# CTL line BB007 [2] = assay: multiple staining of tetramer-positive cells (CD8, FasL, perforin); format: cell-based, bovine
# Method: Flow cytometry data were acquired on a BD FACSCanto™ II instrument (BD Biosciences). Compensation controls for PE, PerCP, FITC and APC were included for automatic compensation by the FACS DIVA software. 10 μL BoLA class I tetramer was used for staining cells (between 2 × 10^5 and 5 × 10^5 cells per sample). CD8 staining was done by incubating cells with ILRI monoclonal antibody ILA51 (IgG1) and using rat anti-mouse IgG1-PerCP (BD; cat # 340272) as the secondary antibody. Staining for perforin was done using anti-human-perforin-FITC (BD Pharmingen, San diego, CA, USA, cat# 556577) and staining for Fas-ligand was done using primary rabbit anti-Fas ligand (Santa Cruz biotechnology, cat no. SC-957) and secondary FITC-coupled anti-rabbit IgG antibody (Sigma, MO, USA, cat# F-0382). All staining were conducted in PBS-0.5% BSA except for intracellular staining with anti-perforin where cells were incubated and stained in PBS-0.1%Saponin-10% FBS. Negative control for intracellular staining was done with anti-dansyl-FITC antibody (BD Pharmingen, San diego, CA, USA, cat# 556577). The data were analyzed using the FlowJo software version 7.6.5.
substance,measurement,setting,value
CGAELNHFL [Tp8_379-387],tetramer positive cells,CTL line Bx63,about 3%
"FAQSLVCVL [Tp2_96-104, irrelevant peptide for BoLA-6*01301]",binding to BoLA-6*01301 (in words),BoLA-6*01301,does not bind BoLA-6*01301
same,tetramer staining of CTL (in words),CTL line BB007 [1],low level smear staining
same,tetramer positive cells,CTL line Bx196,about 65%
SKADVIAKY [Tp5_87-95],p-MHC monomer binding to BoLA-1*02301 (in words),BoLA-1*02301,confirmed by p-MHC monomer binding assays; also recorded: does indeed bind both BoLA molecules
same,co-staining by Tp5_87-95-BoLA-1*02301 (PE) and Tp5_87-95-BoLA-T5 (APC) tetramers (in words),"CTL line BV50; CD8-gated, Figure 7C",both tetramers bind the same population of CTL; also recorded: a single TCR can recognize the Tp5_87-95 epitope presented by either BoLA molecule
same,tetramer staining of BV50 (in words),"CTL line BV50; peptide as Tp5_87-95-BoLA-1*02301 tetramer, BV50 and 495 lines tested",The only CTL line stained by this tetramer was BV50
same,tetramer staining of BV50 (in words),"CTL line BV50; peptide as Tp5_87-95-BoLA-T5 tetramer, Figure 7B",also stained by Tp5_87-95-BoLA-T5 p-MHC class I tetramers
same,"peptide-BoLA binding, BoLA-T5 (in words)",BoLA-T5,does indeed bind both BoLA molecules
"TGASIQTTL [Tp4 CTL epitope, control peptide for BoLA-3*00101]",binding to BoLA-3*00101 (in words),BoLA-3*00101,known binder to BoLA-3*00101
Tp7_(206-214) peptide,Kd,BoLA-T7 (bovine),252 nM
Tp7_(207-214) peptide,Kd,BoLA-T7 (bovine),142 nM
VGYPKVKEEML [Tp1_214-224],tetramer staining of CTL (in words),CTL line BB007 [1],staining of a clear distinct cell population
same,frequency of Tp1 tetramer positive cells in PBMC,PBMC of BoLA-A18 cattle,about 1%
same,"CD8 and perforin, triple staining",CTL line BB007 [2]; Figure 4D,tetramer-positive cells are also positive for CD8 and perforin
same,CD8 expression of Tp1 tetramer positive cells,"CTL line BB007 [2]; Tp1_214-224-BoLA-6*01301 tetramer, Figure 4A",all Tp1 positive cells in the cell line BB007 were CD8-positive
same,FasL expression of Tp1 tetramer positive cells,"CTL line BB007 [2]; Tp1_214-224-BoLA-6*01301 tetramer, Figure 4B",FasL-positive
same,perforin expression of Tp1 tetramer positive cells,"CTL line BB007 [2]; Tp1_214-224-BoLA-6*01301 tetramer, Figure 4C",perforin-positive
YMYRVWSPL,binding to BoLA-6*01301 (in words),BoLA-6*01301,binds to BoLA-6*01301
same,affinity for BoLA-6*01301,"BoLA-6*01301; control peptide from a bank of random nonamer peptides, binding assay as described in [34]",≥ 1 nM
same,tetramer staining of CTL (in words),CTL line BB007 [1],very low staining
